The values that follow come from US8207216B2, “Benzofuran-3-yl(indol-3-yl) maleimides as potent GSK3 inhibitors” (The Board of Trustees of the University of Illinois, priority 2006, dated 2012).

Assay [1] concerns the target T1, recombinant human His6-GSK-3β (Homo sapiens, UniProt P49841).
T1 construct: His6; purchased EMD Biosciences
Briefly: GSK-3β kinase assay, [γ32P] transfer to primed glycogen synthase peptide.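 As to all read-outs here: phosphate incorporation quantified by liquid scintillation counting of the filters.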 Conditions: for IC50: 10 μM ATP, 10 μM pGSM peptide, 30 minutes at 30° C., read-out: IC50 (nM), GSK-3β inhibition. In kind it is biochemical.

The target in the next assay is CDK2 (Homo sapiens, UniProt P24941). Briefly: Inhibition of various kinases (% inhibition). Format: biochemical. From the text: (§1) Additional examples of selectivity are illustrated in Table 4.
The target in another assay is PKCβ2 (Homo sapiens, UniProt P05771). The assay can be described thus: Inhibition of various kinases (% inhibition). In kind it is biochemical.
Excerpt: as §1

For the next assay, the target named is T2, PDK1 (Homo sapiens, UniProt O15530).
T2 sequence (O15530 1-556): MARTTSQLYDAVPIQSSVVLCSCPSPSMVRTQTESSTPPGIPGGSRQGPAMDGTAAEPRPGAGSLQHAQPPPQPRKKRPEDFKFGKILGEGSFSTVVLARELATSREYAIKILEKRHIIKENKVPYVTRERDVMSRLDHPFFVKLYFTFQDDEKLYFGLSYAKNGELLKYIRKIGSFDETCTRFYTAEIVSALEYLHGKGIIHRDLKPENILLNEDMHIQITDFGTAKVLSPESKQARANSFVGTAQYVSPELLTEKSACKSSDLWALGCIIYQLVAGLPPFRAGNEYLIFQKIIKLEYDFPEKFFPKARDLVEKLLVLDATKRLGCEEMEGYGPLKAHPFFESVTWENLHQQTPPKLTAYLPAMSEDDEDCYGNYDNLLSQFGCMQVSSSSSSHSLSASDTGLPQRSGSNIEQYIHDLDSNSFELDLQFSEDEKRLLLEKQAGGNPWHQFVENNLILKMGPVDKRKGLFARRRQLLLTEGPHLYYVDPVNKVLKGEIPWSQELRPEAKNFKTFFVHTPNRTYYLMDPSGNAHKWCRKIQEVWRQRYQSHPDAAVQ
Briefly: Inhibition of various kinases (% inhibition). Format: biochemical.
Excerpt: as §1

For a further assay, the target named is GSK3α (Homo sapiens, UniProt P49840). Briefly: Inhibition of various kinases (% inhibition). In kind it is biochemical.
Excerpt: as §1

Another assay addresses CDK-2/cyclinE (Homo sapiens, UniProt P24941). The assay can be described thus: CDK-2/CyclinE inhibition (Reaction Biology). Format: biochemical. The following applies: for IC50 Ratio CDK-2/cyclinE GSK-3β: selectivity ratio; for IC50: tested at Reaction Biology, Inc.
For a further assay, the system named is MIAPaCa-2. Briefly: Antiproliferation MTS assay, pancreatic cancer cells. Conditions: Homo sapiens. In kind it is cell-based.
Assay [2] deals with pancreatic cancer cell lines. Briefly: Proliferation and survival of pancreatic cancer cells (overall statements). Format: cell-based. Conditions: based on data of Table 5. As to the method: The pancreatic cancer cell lines BxPc-3, HupT3, MiaPaCa-2, Panc 04.03, and SU86.86 were obtained from ATCC (Rockville, Md.) and were grown in medium (DMEM or RPMI) containing 10% fetal calf serum and L-glutamine. Pancreatic cancer cells were plated out in duplicate into 6-wells of a 96-well microtiter plate at 2.5−4×10^3 cells per well. Four-hours post plating, individual wells were treated with diluent (DMSO) or varying concentrations of commercial compounds, AR-A014418 and SB216763, or the indicated GSK inhibitors of this invention from a concentration of 1 nM to 50 microM. […] The IC50s were calculated using XLfit (IDBS Limited, Guildford, UK).

In the next assay the test system is HupT3. Briefly: Antiproliferation MTS assay, pancreatic cancer cells. The following applies: Homo sapiens. Format: cell-based.
Another assay deals with BXPC-3. Described as above. Format: cell-based. Conditions: Homo sapiens.
The mark [3] stands for this setting: MIA PaCa-2, as reported in Gaisina et al. (2009) J. Med. Chem. 52(7), 1853-1863.
The mark [4] stands for this setting: HuP-T3, as reported in Gaisina et al. (2009) J. Med. Chem. 52(7), 1853-1863.
[5] abbreviates: BXPC-3, as reported in Gaisina et al. (2009) J. Med. Chem. 52(7), 1853-1863.

Chain of PKCβ2 (P05771 1-673 isoform P05771-2): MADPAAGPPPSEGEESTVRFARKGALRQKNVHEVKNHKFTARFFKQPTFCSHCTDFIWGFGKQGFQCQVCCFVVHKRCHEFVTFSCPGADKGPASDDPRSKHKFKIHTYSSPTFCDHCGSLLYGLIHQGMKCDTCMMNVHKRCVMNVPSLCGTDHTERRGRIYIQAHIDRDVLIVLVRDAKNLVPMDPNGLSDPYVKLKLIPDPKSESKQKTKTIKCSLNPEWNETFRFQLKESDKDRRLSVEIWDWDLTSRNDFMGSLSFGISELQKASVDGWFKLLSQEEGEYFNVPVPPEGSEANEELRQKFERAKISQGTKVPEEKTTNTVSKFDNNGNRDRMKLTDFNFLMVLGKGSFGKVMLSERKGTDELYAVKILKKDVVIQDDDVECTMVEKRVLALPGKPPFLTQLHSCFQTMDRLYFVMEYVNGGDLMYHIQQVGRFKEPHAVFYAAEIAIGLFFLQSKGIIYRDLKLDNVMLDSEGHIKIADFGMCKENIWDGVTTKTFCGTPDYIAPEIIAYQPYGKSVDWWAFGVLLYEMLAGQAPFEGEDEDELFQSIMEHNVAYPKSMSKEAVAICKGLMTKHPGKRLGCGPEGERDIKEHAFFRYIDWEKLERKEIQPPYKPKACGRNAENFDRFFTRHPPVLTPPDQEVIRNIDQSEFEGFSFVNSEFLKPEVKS
Chain of GSK3α (P49840 whole entry, species assumed): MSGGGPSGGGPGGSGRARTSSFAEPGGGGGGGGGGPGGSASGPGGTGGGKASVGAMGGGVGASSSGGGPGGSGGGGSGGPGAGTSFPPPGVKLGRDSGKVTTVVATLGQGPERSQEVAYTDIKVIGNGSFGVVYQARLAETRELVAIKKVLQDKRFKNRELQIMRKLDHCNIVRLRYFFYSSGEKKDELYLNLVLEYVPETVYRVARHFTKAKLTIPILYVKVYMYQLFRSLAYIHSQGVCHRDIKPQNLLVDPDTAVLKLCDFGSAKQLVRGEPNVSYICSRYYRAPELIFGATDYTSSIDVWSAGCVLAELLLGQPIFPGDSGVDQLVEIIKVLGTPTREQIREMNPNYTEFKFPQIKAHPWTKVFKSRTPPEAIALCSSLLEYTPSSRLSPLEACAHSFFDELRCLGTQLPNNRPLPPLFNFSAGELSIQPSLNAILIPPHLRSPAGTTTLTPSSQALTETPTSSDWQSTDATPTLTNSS
T1 sequence (P49841 whole entry): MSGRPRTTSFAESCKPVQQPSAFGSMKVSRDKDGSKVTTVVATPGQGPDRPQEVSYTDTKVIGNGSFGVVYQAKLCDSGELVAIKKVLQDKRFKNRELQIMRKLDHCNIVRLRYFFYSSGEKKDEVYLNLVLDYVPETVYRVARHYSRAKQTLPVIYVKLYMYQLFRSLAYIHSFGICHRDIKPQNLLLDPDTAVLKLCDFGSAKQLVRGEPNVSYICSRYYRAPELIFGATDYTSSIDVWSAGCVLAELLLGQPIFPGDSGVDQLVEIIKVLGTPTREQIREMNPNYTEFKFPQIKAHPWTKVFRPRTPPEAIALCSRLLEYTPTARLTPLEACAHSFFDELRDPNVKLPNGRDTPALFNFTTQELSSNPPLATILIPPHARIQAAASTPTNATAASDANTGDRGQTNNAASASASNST

For “3-Benzofuran-3-yl-4-[5-bromo-1-(3-hydroxy-propyl)-1H-indol-3-yl]-pyrrole-2,5-dione [Compound 20]”, the Ki (commonly the equilibrium dissociation constant of an inhibitor or competing ligand from its target) in assay [1] is 5 nM. Further, the IC50 – broadly, the concentration at which inhibition is half-maximal – in [1] was determined as 7.5 ± 1.1 nM; against CDK-2/cyclinE, 1160 nM. For the same molecule, the “% Inhibition CDK2” value on CDK2 (1 μM) is given as 76%; on CDK2 (10 μM), 90%. For the same molecule, the “% Inhibition PKCβ2” value amounted to 8% on PKCβ2 (1 μM) and 62% at PKCβ2 (10 μM). The figures for the “% Inhibition PDK1” value at PDK1 (1 μM) and at PDK1 (10 μM) were 7% and −1%, respectively. Also, the entries for the “% Inhibition GSK3α” value at GSK3α (1 μM) and on GSK3α (10 μM) were 58% and 100%, respectively. At CDK-2/cyclinE, the “IC50 Ratio CDK-2/cyclinE GSK-3β” value turned out to be 150.
With `Cn1cc(C2=C(c3coc4ccccc34)C(=O)NC2=O)c2ccccc21` [Compound 1, 3-Benzofuran-3-yl-4-(1-methyl-1H-indol-3-yl)-pyrrole-2,5-dione], the half-inhibitory concentration (IC50) in the assay with MIAPaCa-2 (MIA PaCa-2, 72 hrs, MTS) was determined as 3000 nM; in assay [1], 35 ± 9 nM; at CDK-2/cyclinE, 1410 nM. For the same molecule, the “Inhibition of pancreatic cancer cell proliferation compared with AR-A014418 and SB216768” value in [2] is “more effective inhibition of pancreatic cancer cell proliferation than these reference compounds”. Besides, the “IC50 Ratio CDK-2/cyclinE GSK-3β” value at CDK-2/cyclinE is reported as 40.
`Cn1cc(C2=C(c3coc4cc(CO)ccc34)C(=O)NC2=O)c2cc(F)ccc21` [Compound 7, 3-(5-Fluoro-1-methyl-1H-indol-3-yl)-4-(6-hydroxymethyl-benzofuran-3-yl)-pyrrole-2,5-dione]: the IC50 in [1] came to 0.35 ± 0.06 nM; on CDK-2/cyclinE, 237 nM.
For `Cn1cc(C2=C(c3coc4ccccc34)C(=O)NC2=O)c2cc(F)c(Cl)cc21` [Compound 12, 3-Benzofuran-3-yl-4-(6-chloro-5-fluoro-1-methyl-1H-indol-3-yl)-pyrrole-2,5-dione], the IC50 was 3000 ± 400 nM with MIAPaCa-2 (setting [3]); less than 1000 nM in the assay on MIAPaCa-2 (MIA PaCa-2, 72 hrs, MTS); 184 ± 31 nM in assay [1]; 2000 ± 300 nM with HupT3 (setting [4]); 2000 ± 200 nM with BXPC-3 (setting [5]). Further, the “Inhibition of pancreatic cancer cell proliferation compared with AR-A014418 and SB216768” value in [2] was “more effective inhibition of pancreatic cancer cell proliferation than these reference compounds”.
In the case of `O=C1NC(=O)C(c2cn(CCCO)c3ccc(Br)cc23)=C1c1coc2ccccc12` [Compound 21, 3-Benzofuran-3-yl-4-[5-bromo-1-(3-hydroxy-propyl)-1H-indol-3-yl]-pyrrole-2,5-dione], the IC50 in assay [1] was 1.61 ± 0.09 nM. Besides, the inhibition (commonly how much of the control response was suppressed) at 1 µM on CDK2 (1 μM) was found to be 62%; against PKCβ2 (1 μM), 62%; at PDK1 (1 μM) it was 80%; on GSK3α (1 μM) it was 62%. Besides, the inhibition at 10 µM against CDK2 (10 μM) was 95%; on PKCβ2 (10 μM), 83%; against PDK1 (10 μM), 92%; on GSK3α (10 μM), 99%.
On to `C#CCOc1ccc2c(C3=C(c4cn(C)c5ccc(Br)cc45)C(=O)NC3=O)coc2c1` [Compound 23, 3-(5-Bromo-1-methyl-1H-indol-3-yl)-4-(6-prop-2-ynyloxy-benzofuran-3-yl)-pyrrole-2,5-dione], for which the IC50 in [1] was 25.3 ± 2.4 nM. In addition, the inhibition at 1 µM against CDK2 (1 μM) was 22%; on PKCβ2 (1 μM), 3%; against PDK1 (1 μM) it was 12%; against GSK3α (1 μM) it was 84%. Further, the inhibition at 10 µM against CDK2 (10 μM) was 66%; on PKCβ2 (10 μM), 25%; against PDK1 (10 μM), 45%; against GSK3α (10 μM), 99%.
For the molecule `Cn1cc(C2=C(c3coc4ccc(F)cc34)C(=O)NC2=O)c2cc(Cl)ccc21` [Compound 27, 3-(5-Chloro-1-methyl-1H-indol-3-yl)-4-(5-fluoro-benzofuran-3-yl)-pyrrole-2,5-dione], the figures for the IC50 (in [1]; on CDK-2/cyclinE) were 34.5 ± 3.8 nM and 1840 nM, respectively. Besides, at CDK-2/cyclinE, the “IC50 Ratio CDK-2/cyclinE GSK-3β” value is recorded as 2.6.
For the molecule `N#Cc1ccc2c(c1)c(C1=C(c3coc4cc(F)c(F)cc34)C(=O)NC1=O)cn2CC1CC1` [Compound 35, 1-Cyclopropylmethyl-3-[4-(5,6-difluoro-benzofuran-3-yl)-2,5-dioxo-2,5-dihydro-1H-pyrrol-3-yl]-1H-indole-5-carbonitrile], the IC50 is 14000 nM in the assay with MIAPaCa-2 (MIA PaCa-2, 72 hrs, MTS); 131 ± 22 nM in assay [1]; more than 50000 nM in the assay on HupT3 (HuP-T3, 72 hrs, MTS); more than 50000 nM with BXPC-3 (BXPC-3, 72 hrs, MTS).
Consider `Cn1cc(C2=C(c3coc4ccccc34)C(=O)NC2=O)c2cc(C3CC3)ccc21` [Compound 37, 3-Benzofuran-3-yl-4-(5-cyclopropyl-1-methyl-1H-indol-3-yl)-pyrrole-2,5-dione], for which the values for the IC50 (in assay [1]; against CDK-2/cyclinE) were 235 ± 15 nM and 32000 nM, respectively.
As to `Cn1cc(C2=C(c3coc4ccc(F)cc34)C(=O)NC2=O)c2cc(C#CC3CC3)ccc21` [Compound 38, 3-(5-Cyclopropylethynyl-1-methyl-1H-indol-3-yl)-4-(5-fluoro-benzofuran-3-yl)-pyrrole-2,5-dione], the half-maximal inhibitory concentration (IC50) in the assay on MIAPaCa-2 (setting [3]) was 34000 ± 2200 nM; in the assay with MIAPaCa-2 (MIA PaCa-2, 72 hrs, MTS), 34000 nM; in assay [1], 16.2 ± 3.9 nM; in the assay on HupT3 (setting [4]) it was more than 50000 nM; in the assay on HupT3 (HuP-T3, 72 hrs, MTS) it was more than 50000 nM; with BXPC-3 (setting [5]), more than 50000 nM. In addition, in the assay with BXPC-3 (BXPC-3, 72 hrs, MTS), the IC50 was more than 50000 nM. In assay [2], the “Inhibition of pancreatic cancer cell proliferation compared with AR-A014418 and SB216768” value is “more effective inhibition of pancreatic cancer cell proliferation than these reference compounds”.
As to `O=C1NC(=O)C(c2coc3ccccc23)=C1c1c[nH]c2ccc(OCc3ccccc3)cc12` [Compound 44, 3-Benzofuran-3-yl-4-(5-benzyloxy-1H-indol-3-yl)-pyrrole-2,5-dione], the IC50 in the assay on MIAPaCa-2 (MIA PaCa-2, 72 hrs, MTS) was determined as 21000 nM; in assay [1], 1650 ± 200 nM.
For `Cn1cc(C2=C(c3coc4ccc(F)cc34)C(=O)NC2=O)c2ccc(OCc3ccccc3)cc21` [Compound 48, 3-(6-Benzyloxy-1-methyl-1H-indol-3-yl)-4-(5-fluoro-benzofuran-3-yl)-pyrrole-2,5-dione], the IC50 with MIAPaCa-2 (MIA PaCa-2, 72 hrs, MTS) came out at 80000 nM; in assay [1] it was 160 ± 35 nM.
With `COc1cccc2c(C3=C(c4cn(C)c5cc(C(F)(F)F)ccc45)C(=O)NC3=O)coc12` [Compound 49, 3-(7-Methoxy-benzofuran-3-yl)-4-(1-methyl-6-trifluoromethyl-1H-indol-3-yl)-pyrrole-2,5-dione], the IC50 came to 8000 ± 1200 nM in the assay with MIAPaCa-2 (setting [3]); 8000 nM in the assay with MIAPaCa-2 (MIA PaCa-2, 72 hrs, MTS); 831 ± 77 nM in [1]; 6000 ± 500 nM in the assay with HupT3 (setting [4]); 6000 nM in the assay with HupT3 (HuP-T3, 72 hrs, MTS); 6000 ± 800 nM with BXPC-3 (setting [5]). In the assay on BXPC-3 (BXPC-3, 72 hrs, MTS), it took 6000 nM to reach half-maximal inhibition (IC50). Further, in [2], the “Inhibition of pancreatic cancer cell proliferation compared with AR-A014418 and SB216768” value is recorded as “more effective inhibition of pancreatic cancer cell proliferation than these reference compounds”.
As to `Cn1cc(C2=C(c3coc4cc(F)c(F)cc34)C(=O)NC2=O)c2ccc3ccccc3c21` [Compound 55, 3-(5,6-Difluoro-benzofuran-3-yl)-4-(1-methyl-1H-benzo[g]indol-3-yl)-pyrrole-2,5-dione], the IC50 was found to be 17000 ± 3200 nM in the assay with MIAPaCa-2 (setting [3]); 17000 nM in the assay with MIAPaCa-2 (MIA PaCa-2, 72 hrs, MTS); 314 ± 19 nM in assay [1]; 6000 ± 700 nM in the assay with HupT3 (setting [4]); 6000 nM in the assay on HupT3 (HuP-T3, 72 hrs, MTS); 7000 nM in the assay on BXPC-3 (BXPC-3, 72 hrs, MTS). Besides, in assay [2], the “Inhibition of pancreatic cancer cell proliferation compared with AR-A014418 and SB216768” value is given as “more effective inhibition of pancreatic cancer cell proliferation than these reference compounds”.
As for `Cn1cc(C2=C(c3coc4ccccc34)C(=O)NC2=O)c2cccc(CO)c21` [Compound 82], on CDK-2/cyclinE, the “IC50 Ratio CDK-2/cyclinE GSK-3β” value is on record as 27 and the 50% inhibitory concentration (IC50) amounted to 149 nM.
For `Cn1cc(C2=C(c3coc4cc(CO)ccc34)C(=O)NC2=O)c2cccc(CO)c21` [Compound 83], in that order: 5 and 27 nM.
